Where a name gives a salt, the structure may show the parent alone.
What was measured:
11b-HSD2 [1] = biological target: T1, 11b-HSD2 (Homo sapiens, UniProt P80365); test: Enzymatic assay, 11b-HSD2 dependent dehydrogenase activity; format: biochemical; settings: 11b-HSD2 dehydrogenase activity, pIC50 scored 1-3, read-out: [C1] HSD2 prot Dehydro Score
T1 sequence (P80365 1-405): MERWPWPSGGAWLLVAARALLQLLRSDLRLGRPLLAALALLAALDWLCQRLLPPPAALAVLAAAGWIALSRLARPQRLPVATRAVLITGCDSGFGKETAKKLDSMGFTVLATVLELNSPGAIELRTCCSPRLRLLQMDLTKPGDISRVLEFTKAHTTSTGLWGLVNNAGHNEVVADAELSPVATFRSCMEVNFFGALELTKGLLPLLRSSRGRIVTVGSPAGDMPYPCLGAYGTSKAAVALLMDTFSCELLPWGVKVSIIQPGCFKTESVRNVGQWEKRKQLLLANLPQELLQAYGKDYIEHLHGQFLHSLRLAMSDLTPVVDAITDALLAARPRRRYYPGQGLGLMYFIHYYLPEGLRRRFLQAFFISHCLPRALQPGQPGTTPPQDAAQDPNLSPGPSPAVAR
Description: The effects on the 11b-HSD2 dependent dehydrogenase activity was studied in a reaction mixture containing 0.1M sodium phosphate buffer pH 7.5, 300 μM NAD, 100 nM cortisol (of which 2 nM is 3H-radio labelled), 1 μl drug and/or solvent and 2.5 μg recombinant protein in a final volume of 100 μl.
(§1) All incubations were performed for 45 min at 37 C in a water bath. The reaction was stopped by adding 100 μl acetonitrile containing 20 μg corticosterone as internal standard. After centrifugation, the product formation was analysed in the supernatant by HPLC on a Hypersyl BDS-C18 column using 0.05 mM ammonium acetate/methanol (50/50) as solvent. In all of the aforementioned assays, the drugs to be tested were taken from a stock solution and tested at a final concentration ranging from […] to 3.10^−9M. From the thus obtained dose response curves, the pIC50 value was calculated and scored as follows; Score 1=pIC50 value<5, Score 2=pIC50 value in the range of 5 to 6, Score 3=pIC50 value>6. (in this table NT stands for Not Tested).

11b-HSD2 [2] = biological target: T1, 11b-HSD2; test: Cellular assay, 11b-HSD2 activity in HepG2 cells; format: cell-based; design: endogenous in cells; host or cells: HepG2 (ATCC HB-8065); settings: 4 hour pre-incubation, pIC50 scored 1-3, read-out: [C2] HSD2 cellular HepG2 Score
Description: The effects on 11b-HSD2 activity was studied in HepG2 and LCC-PK1-cells HepG2-cells (ATCC HB-8065) were seeded in 12 well plates at a density of 100,000 cells/ml and grown at 37 C in a humidified 5% CO2 atmosphere in MEM-Rega-3 medium supplemented with 10% heat inactivated foetal calf serum, 2 mM L-glutamine and sodium bicarbonate). Medium was refreshed twice a week. Pig kidney cells (LCC-PK1, ATCC CRL-1392) were seeded at a density of 150,000 cells/ml in 12 well plates and grown at 37 C in a humidified 5% CO2 atmosphere in Medium 199 supplemented with Earls modified salt solution, 100 U/ml penicillin, 100 μg/ml streptomycin and 10% foetal calf serum. Medium was refreshed twice a week. Twenty four hours prior to the onset of the experiment, medium was changed by medium containing 10% charcoal stripped foetal calf serum.
Following a 4 hour pre-incubation with test compound, 0.5 μCi ^3H-cortisol or corticosterone, was added to the cultures. One hour later, the medium was extracted on Extrelut^3-columns with 15 ml diethyl ether and the extract was analysed by HPLC as described above.
(§2) As for the enzymatic assays, the compounds to be tested were taken from a stock solution and tested at a final concentration ranging from […] to 3.10^−9M. From the thus obtained dose response curves, the pIC50 value was calculated and scored as follows; Score 1=pIC50 value<5, Score 2=pIC50 value in the range of 5 to 6, Score 3=pIC50 value>6. (in this table NT stands for Not Tested).

11b-HSD1 [3] = biological target: T2, 11b-HSD1 (Mus musculus, UniProt P50172); test: Cellular assay, 11b-HSD1 activity in differentiated 3T3-L1 cells; format: cell-based; settings: 4 hour pre-incubation, pIC50 scored 1-3, read-out: [C2] HSD1 cellular 3T3-L1 Score
T2 construct: endogenous in cells; host or cells: 3T3-L1 (ATCC-CL-173), differentiated into adipocytes
T2 sequence (P50172 whole entry): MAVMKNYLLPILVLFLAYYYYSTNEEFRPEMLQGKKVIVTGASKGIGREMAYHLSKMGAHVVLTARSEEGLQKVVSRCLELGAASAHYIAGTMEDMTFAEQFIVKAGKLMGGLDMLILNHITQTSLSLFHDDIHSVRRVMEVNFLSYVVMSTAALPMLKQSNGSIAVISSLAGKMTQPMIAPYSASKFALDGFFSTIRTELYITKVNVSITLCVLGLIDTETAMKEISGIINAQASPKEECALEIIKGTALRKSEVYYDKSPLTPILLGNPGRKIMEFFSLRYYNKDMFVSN
Description: The effects on 11b-HSD1 activity was measured in differentiated 3T3-L1 cells and rat hepatocytes.
Mouse fibroblast 3T3-L1 cells (ATCC-CL-173) were seeded at a density of 16500 cells/ml in 12 well plates and grown for 7 days in DMEM medium (supplemented with 10% heat inactivated foetal calf serum, 2 mM glutamine and 25 mg gentamycin) at 37 C in a humidified 5% CO2 atmosphere. Medium was refreshed twice a week. Fibroblasts were differentiated into adipocytes at 37 C in a 5% CO2 humidified atmosphere in growth medium containing 2 μg/ml insulin, 55 μg/ml IBMX and 39.2 μg/ml dexamethasone.
Following a 4 hour pre-incubation with test compound, 0.5 μCi ^3H-cortisone or dehydrocorticosterone, was added to the cultures. One hour later, the medium was extracted on Extrelut^3-columns with 15 ml diethyl ether and the extract was analysed by HPLC as described above.
as §2

11b-HSD1 [4] = biological target: 11b-HSD1 (Homo sapiens, UniProt P28845); test: Enzymatic assay, 11b-HSD1 reductase activity (conversion of cortisone into cortisol); format: biochemical; settings: pIC50 scored 1-3, read-out: [C1] HSD1-prot Reduct Score
Chain of 11b-HSD1 (Homo sapiens, UniProt P28845) (P28845 whole entry): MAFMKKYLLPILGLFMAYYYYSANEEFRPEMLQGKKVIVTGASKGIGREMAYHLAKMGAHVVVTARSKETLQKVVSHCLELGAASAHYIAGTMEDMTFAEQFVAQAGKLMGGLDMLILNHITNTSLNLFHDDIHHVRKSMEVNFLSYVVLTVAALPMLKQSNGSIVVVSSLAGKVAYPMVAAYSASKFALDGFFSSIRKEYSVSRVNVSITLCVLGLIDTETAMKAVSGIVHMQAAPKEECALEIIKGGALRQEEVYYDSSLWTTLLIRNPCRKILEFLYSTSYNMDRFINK
Description: The effects of compounds on 11b-HSD1 dependent conversion of cortisone into cortisol (reductase activity) was studied in a reaction mixture containing 30 mM Tris-HCl buffer pH 7.2, 180 μM NADPH, 1 mM EDTA, 2 μM cortisone, 1 μl drug and/or solvent and 11 μg recombinant protein in a final volume of 100 μl.
as §1

SMILES: CC(C)(C(=O)N[C@H]1[C@@H]2CC3C[C@H]1C[C@](O)(C3)C2)c1cccc(OCCN2CCOCC2)c1 (as salt: HCl) [Compound 158]
- melting point: 155 to 160 °C

SMILES: CC(C)(C(=O)N[C@H]1[C@@H]2CC3C[C@H]1C[C@](F)(C3)C2)c1cccc(OCCN2CCOCC2)c1 (as salt: HCl) [Compound 228]
- melting point: 208 to 210 °C

SMILES: COc1cccc(C(C)(C)C(=O)N[C@@H]2[C@@H]3CC4C[C@H]2C[C@](O)(C4)C3)c1 [Compound 155]
- melting point: 165 to 167 °C

SMILES: Cc1cccc(C(C)(C)C(=O)N[C@H]2[C@@H]3CC4C[C@H]2C[C@](F)(C4)C3)c1 [Compound 187]
- melting point: 115 to 117 °C

SMILES: COc1cccc(C(C)(C)C(=O)N[C@@H]2[C@@H]3CC4C[C@H]2C[C@](F)(C4)C3)c1 [Compound 188]
- melting point: 110 to 112 °C

SMILES: COc1cccc(C(C)(C)C(=O)N[C@H]2[C@@H]3CC4C[C@H]2C[C@](F)(C4)C3)c1 [Compound 189]
- melting point: 105 to 107 °C

SMILES: CN1CCN(CCOc2cccc(C(C)(C)C(=O)NC3C4CC5CC(C4)CC3C5)c2)CC1 (centres unmarked) [Compound 199]
- melting point: 165 to 170 °C

SMILES: O=C(NC1C2CC3CC(C2)CC1C3)N1CCCc2ccccc21 (centres unmarked) [Compound 200]
- melting point: 163 to 165 °C

SMILES: O=C(NC1C2CC3CC(C2)CC1C3)N1CCc2ccccc2C1 (centres unmarked) [Compound 201]
- melting point: 145 to 147 °C

SMILES: COc1ccc2c(c1)C(C(=O)NC1C3CC4CC(C3)CC1C4)CCC2 (centres unmarked) [Compound 203]
- IC50 (11b-HSD2 [1]): > 10 µM
- IC50 (11b-HSD2 [2]): > 10 µM
- IC50 (11b-HSD1 [3]): < 1 µM
- IC50 (11b-HSD1 [4]): > 10 µM

SMILES: COc1cc(C)cc(C(C)(C)C(=O)NC2C3CC4CC(C3)CC2C4)c1 (centres unmarked) [Compound 210]
- IC50 (11b-HSD2 [1]): > 10 µM
- IC50 (11b-HSD2 [2]): > 10 µM
- IC50 (11b-HSD1 [3]): < 1 µM
- IC50 (11b-HSD1 [4]): > 10 µM

SMILES: CC(C)(C(=O)N[C@H]1[C@@H]2CC3C[C@H]1C[C@](F)(C3)C2)c1cccc(CCC(=O)O)c1 [Compound 217]
- IC50 (11b-HSD2 [1]): > 10 µM
- IC50 (11b-HSD2 [2]): > 10 µM
- IC50 (11b-HSD1 [3]): < 1 µM
- IC50 (11b-HSD1 [4]): 1 to 10 µM

SMILES: O=C(N[C@H]1[C@@H]2CC3C[C@H]1C[C@](O)(C3)C2)N1CCCc2ccccc21 [Compound 218]
- melting point: 170 to 172 °C

SMILES: O=C(N[C@@H]1[C@@H]2CC3C[C@H]1C[C@](O)(C3)C2)N1CCCc2ccccc21 [Compound 219]
- melting point: 185 to 188 °C

SMILES: O=C(NC1C2CC3CC(C2)CC1C3)C1=CCCc2c(Br)cccc21 (centres unmarked) [Compound 223]
- IC50 (11b-HSD2 [1]): > 10 µM
- IC50 (11b-HSD2 [2]): > 10 µM
- IC50 (11b-HSD1 [3]): < 1 µM
- IC50 (11b-HSD1 [4]): < 1 µM

SMILES: O=C(NC1C2CC3CC(C2)CC1C3)C1CCc2ccccc2C1 (centres unmarked) [Compound 224]
- IC50 (11b-HSD2 [1]): > 10 µM
- IC50 (11b-HSD2 [2]): > 10 µM
- IC50 (11b-HSD1 [3]): < 1 µM
- IC50 (11b-HSD1 [4]): < 1 µM

SMILES: O=C(N[C@H]1[C@@H]2CC3C[C@H]1C[C@](F)(C3)C2)N1CCCc2ccccc21 [Compound 226]
- melting point: 182 to 184 °C

SMILES: CC(C)(C(=O)N[C@H]1[C@@H]2CC3C[C@H]1C[C@](F)(C3)C2)c1cccc(OCC(=O)O)c1 [Compound 227]
- melting point: 210 to 215 °C

SMILES: Cc1cc(CCC(=O)O)cc(C(C)(C)C(=O)NC2C3CC4CC(C3)CC2C4)c1 (centres unmarked) [Compound 230]
- IC50 (11b-HSD2 [1]): > 10 µM
- IC50 (11b-HSD2 [2]): > 10 µM
- IC50 (11b-HSD1 [3]): < 1 µM
- IC50 (11b-HSD1 [4]): < 1 µM

SMILES: CC1CCC(C(=O)NC2C3CC4CC(C3)CC2C4)c2ccccc21 (centres unmarked) [Compound 236]
- IC50 (11b-HSD2 [1]): > 10 µM
- IC50 (11b-HSD2 [2]): > 10 µM
- IC50 (11b-HSD1 [3]): < 1 µM
- IC50 (11b-HSD1 [4]): < 1 µM

SMILES: O=C(O)CCc1cccc2c1CCCC2C(=O)NC1C2CC3CC(C2)CC1C3 (centres unmarked) [Compound 240]
- IC50 (11b-HSD2 [1]): > 10 µM
- IC50 (11b-HSD2 [2]): > 10 µM
- IC50 (11b-HSD1 [3]): < 1 µM
- IC50 (11b-HSD1 [4]): > 10 µM

SMILES: CC(C)(C(=O)N[C@@H]1[C@@H]2CC3C[C@H]1C[C@@](O)(C3)C2)c1cccc(CCC(=O)O)c1 [Compound 242]
- IC50 (11b-HSD2 [1]): > 10 µM
- IC50 (11b-HSD2 [2]): > 10 µM
- IC50 (11b-HSD1 [3]): < 1 µM
- IC50 (11b-HSD1 [4]): 1 to 10 µM

SMILES: O=C(N[C@H]1[C@@H]2CC3C[C@H]1C[C@](O)(C3)C2)C1CCc2ccccc2C1 (some centres unmarked) [Compound 243]
- IC50 (11b-HSD2 [1]): > 10 µM
- IC50 (11b-HSD2 [2]): > 10 µM
- IC50 (11b-HSD1 [3]): < 1 µM
- IC50 (11b-HSD1 [4]): < 1 µM

SMILES: Cc1cc(CCC(=O)N2CCOCC2)cc(C(C)(C)C(=O)N[C@H]2[C@@H]3CC4C[C@H]2C[C@](O)(C4)C3)c1 [Compound 248]
- IC50 (11b-HSD2 [1]): > 10 µM
- IC50 (11b-HSD2 [2]): > 10 µM
- IC50 (11b-HSD1 [3]): < 1 µM
- IC50 (11b-HSD1 [4]): < 1 µM

SMILES: Cc1cc(CCC(=O)N2CCOCC2)cc(C(C)(C)C(=O)N[C@H]2[C@@H]3CC4C[C@H]2C[C@](F)(C4)C3)c1 [Compound 251]
- IC50 (11b-HSD2 [1]): > 10 µM
- IC50 (11b-HSD2 [2]): > 10 µM
- IC50 (11b-HSD1 [3]): < 1 µM
- IC50 (11b-HSD1 [4]): < 1 µM

SMILES: Cc1cc(CCC(=O)O)cc(C(C)(C)C(=O)N[C@H]2[C@@H]3CC4C[C@H]2C[C@](F)(C4)C3)c1 [Compound 254]
- IC50 (11b-HSD2 [1]): > 10 µM
- IC50 (11b-HSD2 [2]): > 10 µM
- IC50 (11b-HSD1 [3]): < 1 µM
- IC50 (11b-HSD1 [4]): > 10 µM

SMILES: O=C(O)COc1cccc2c1CCN(C(=O)NC1C3CC4CC(C3)CC1C4)C2 (centres unmarked) [Compound 257]
- melting point: 215 to 220 °C

SMILES: O=C(O)CCc1cccc2c1CCCC2C(=O)N[C@H]1[C@@H]2CC3C[C@H]1C[C@](F)(C3)C2 (some centres unmarked) [Compound 258]
- IC50 (11b-HSD2 [1]): > 10 µM
- IC50 (11b-HSD2 [2]): > 10 µM
- IC50 (11b-HSD1 [3]): < 1 µM
- IC50 (11b-HSD1 [4]): < 1 µM

SMILES: COc1cc(C)cc(C(C)(C)C(=O)N[C@H]2[C@@H]3CC4C[C@H]2C[C@](F)(C4)C3)c1 [Compound 263]
- IC50 (11b-HSD2 [1]): > 10 µM
- IC50 (11b-HSD2 [2]): > 10 µM
- IC50 (11b-HSD1 [3]): < 1 µM
- IC50 (11b-HSD1 [4]): > 10 µM
